The record followed here is patent publication US20250147039A1, “Compounds for complexation of rare earth elements and/or s-, p-, d- block metals, their coordination compounds, peptide conjugates, method of their preparation and use thereof” (USTAV ORGANICKE CHEMIE A BIOCHEMIE AV CR V.V.I., priority 2021, published 2025).

Data set [1] is described as follows: Alkali metal dependent formation of 1,5-cz-Lig and 1,4-cz-Lig isomers from Lig at pH 10.2 (Chart 14). It is filed as physicochemical. The conditions noted are these: B: 1 day at 80° C., Borate/(M^I)2CO3 buffer pH 10.2; for conversion to 1,4-cz-Lig isomer, Li^I / conversion to 1,5-cz-Lig isomer, Li^I: visible analyte free precipitate.
Data set [2] in a line: Formation of 1,5-cz-[M(Lig)] from Lig and M^III ions (metal dependent click-zip) (Charts 4, 5). To be noted: MOPS/NaOH buffer pH 7.0, TD728, TD827 in 50% i-PrOH; for conversion to 1,5-cz-[M(Lig)], Y^III: TD714 sum of two diastereoisomers. Format: physicochemical.
Data set [3] can be described thus: Formation of 1,5-cz-[Ln(Lig)] from Lig and Ln^III ions (metal dependent click-zip), MOPS/NaOH buffer pH 7.0, analytical HPLC (Charts 1, 2). The conditions noted are these: MOPS/NaOH buffer pH 7.0.

`C#Cc1cccc(CN2CCN(CP(=O)(O)O)CCN(Cc3cccc(CN=[N+]=[N-])n3)CCN(CP(=O)(O)O)CC2)n1` [TD581]: in data set [1], the “conversion to 1,4-cz-Lig isomer, Cs^I” value is listed as 31%; the “conversion to 1,4-cz-Lig isomer, K^I” value turned out to be 32%; the “conversion to 1,4-cz-Lig isomer, Na^I” value is reported as 26%; the “conversion to 1,4-cz-Lig isomer, Rb^I” value turned out to be 32%. Further, in data set [1], the “conversion to 1,5-cz-Lig isomer, Cs^I” value stood at 6%; the “conversion to 1,5-cz-Lig isomer, K^I” value turned out to be 7%; the “conversion to 1,5-cz-Lig isomer, Na^I” value was determined as 25%; the “conversion to 1,5-cz-Lig isomer, Rb^I” value was 7%. In data set [1], the “conversion to 1,4-cz-Lig isomer, Li^I” value was 19% and the “conversion to 1,5-cz-Lig isomer, Li^I” value came out at 10%.

For `C#Cc1cccc(CN2CCNCCN(Cc3cccc(CN=[N+]=[N-])n3)CCN(CC(=O)O)CC2)n1` [TD703], in data set [1], the “conversion to 1,4-cz-Lig isomer, Cs^I” value is reported as 20%; the “conversion to 1,4-cz-Lig isomer, K^I” value was 20%; the “conversion to 1,4-cz-Lig isomer, Na^I” value was determined as 10%; the “conversion to 1,4-cz-Lig isomer, Rb^I” value came to 20%. In data set [1], the “conversion to 1,5-cz-Lig isomer, Cs^I” value is listed as 13%; the “conversion to 1,5-cz-Lig isomer, K^I” value is 14%; the “conversion to 1,5-cz-Lig isomer, Na^I” value was 75%; the “conversion to 1,5-cz-Lig isomer, Rb^I” value worked out at 14%. Moreover, in data set [1], the “conversion to 1,4-cz-Lig isomer, Li^I” value was found to be 14% and the “conversion to 1,5-cz-Lig isomer, Li^I” value amounted to 24%.

As to `[N-]=[N+]=NCc1cccc(CN2CCN(CC(=O)O)CCN(Cc3cccc(C#CI)n3)CCN(CC(=O)O)CC2)n1` [TD1204], in data set [2] (1 week at 80° C.), the “conversion to 1,5-cz-[M(Lig)], Sc^III” value came out at 16% and the “conversion to 1,5-cz-[M(Lig)], Y^III” value was 22%. In data set [2] (1 hour at 80° C.), the “conversion to 1,5-cz-[M(Lig)], Sc^III” value is 0% and the “conversion to 1,5-cz-[M(Lig)], Y^III” value is on record as 3%. Also, in data set [3] (after 1 week at 80° C.), the “conversion to 1,5-cz-[Ln(Lig)], Ce^III” value is listed as 0%; the “conversion to 1,5-cz-[Ln(Lig)], Dy^III” value is reported as 17%; the “conversion to 1,5-cz-[Ln(Lig)], Er^III” value worked out at 39%; the “conversion to 1,5-cz-[Ln(Lig)], Eu^III” value is on record as 5%. In addition, in data set [3] (after 1 week at 80° C.), the “conversion to 1,5-cz-[Ln(Lig)], Gd^III” value was 5%; the “conversion to 1,5-cz-[Ln(Lig)], Ho^III” value is recorded as 23%; the “conversion to 1,5-cz-[Ln(Lig)], La^III” value is 0%; the “conversion to 1,5-cz-[Ln(Lig)], Lu^III” value is given as 83%. In data set [3] (after 1 week at 80° C.), the “conversion to 1,5-cz-[Ln(Lig)], Nd^III” value was found to be 1%; the “conversion to 1,5-cz-[Ln(Lig)], Pr^III” value turned out to be 0%; the “conversion to 1,5-cz-[Ln(Lig)], Sm^III” value was 4%; the “conversion to 1,5-cz-[Ln(Lig)], Tb^III” value is listed as 10%. For the same compound, in data set [3] (after 1 week at 80° C.), the “conversion to 1,5-cz-[Ln(Lig)], Tm^III” value amounted to 62% and the “conversion to 1,5-cz-[Ln(Lig)], Yb^III” value is listed as 76%. For the same compound, in data set [3] (after 1 hour at 80° C.), the “conversion to 1,5-cz-[Ln(Lig)], Ce^III” value was found to be 0%; the “conversion to 1,5-cz-[Ln(Lig)], Dy^III” value stood at 2%; the “conversion to 1,5-cz-[Ln(Lig)], Er^III” value was found to be 6%; the “conversion to 1,5-cz-[Ln(Lig)], Eu^III” value was determined as 1%. Besides, in data set [3] (after 1 hour at 80° C.), the “conversion to 1,5-cz-[Ln(Lig)], Gd^III” value is 1%; the “conversion to 1,5-cz-[Ln(Lig)], Ho^III” value came to 4%; the “conversion to 1,5-cz-[Ln(Lig)], La^III” value came out at 0%; the “conversion to 1,5-cz-[Ln(Lig)], Lu^III” value was determined as 18%. In data set [3] (after 1 hour at 80° C.), the “conversion to 1,5-cz-[Ln(Lig)], Nd^III” value is listed as 0%; the “conversion to 1,5-cz-[Ln(Lig)], Pr^III” value was determined as 0%; the “conversion to 1,5-cz-[Ln(Lig)], Sm^III” value is on record as 1%; the “conversion to 1,5-cz-[Ln(Lig)], Tb^III” value is on record as 2%. Moreover, in data set [3] (after 1 hour at 80° C.), the “conversion to 1,5-cz-[Ln(Lig)], Tm^III” value worked out at 11% and the “conversion to 1,5-cz-[Ln(Lig)], Yb^III” value was found to be 15%.
